Each structure is given as a SMILES string.

These results are taken from US20220000811A1, “COMPOSITION FOR PROMOTING HAIR GROWTH COMPRISING A GUANINE DERIVATIVE” (KOREA RESEARCH INSTITUTE OF BIOSCIENCE AND BIOTECHNOLOGY, priority 2019, published 2022).

In assay [1] the test system is human embryonic stem cells (hESCs). As to the kind of experiment: Maintaining stemness of human embryonic stem cells in unconditioned medium, AP staining. It is filed as cell-based. Particulars: for improvement of effect of maintaining stemness: hESCs in UM. How it is done:
Additionally, the effect of the compounds of the present invention on maintaining sternness of human embryonic stern cells (hESCs) was confirmed (FIG. 4). Specifically, when hESCs were cultured in an unconditioned medium (UM), the sternness was lost, and AP activity was weakened (FIG. 4a). […] In particular, when IM176OUT05 was treated at 10 nM and 100 nM concentrations, it was confirmed that the effect of maintaining the sternness was improved by 7.6 times and 8.2 times, respectively (FIG. 4b).

In assay [2] the test system is C57BL/6 mice. As to the kind of experiment: Hair regeneration model, darkness of dorsal skin and hair growth. It is filed as in vivo, mouse. The procedure: During the hair telogen phase, the hair on the dorsal skin of 7-week-old C57BL/6 mice (Dae Han BioLink, Chungbuk, Republic of Korea) was depilated using an animal clipper and wax (Veet, Oxy Reckitt Benckiser, Seoul, Republic of Korea). From the next day, 200 μL of placebo (control), 1% IM, 1% minoxidil, or 1% metformin was applied daily to the depilated area using a sterile cotton swab. Images of each animal were captured daily, and the degree of darkness of the color on dorsal skin was quantified in the same area (1.6 cm×3 cm) using the Image J program. The mice were sacrificed, and skin tissues on days 0, 7, 14, and 20 were obtained. Half of the tissues were used for RNA isolation, and the other half were fixed with 4% paraformaldehyde overnight for histochemical analysis. It was confirmed whether the IM compound can promote hair growth without showing toxicity or other side effects through mouse experiments. In 7-week-old C57BL/6 mice, the telogen phase was motivated by hair removal, and various concentrations of IM were applied topically to the dorsal skin of the mice daily.

Assay [3] relates to hair follicles. Briefly: Quantitative histomorphometric analysis of hair follicle cycle and number (H&E). It is filed as in vivo, mouse. How it is done:
During the hair telogen phase, the hair on the dorsal skin of 7-week-old C57BL/6 mice (Dae Han BioLink, Chungbuk, Republic of Korea) was depilated using an animal clipper and wax (Veet, Oxy Reckitt Benckiser, Seoul, Republic of Korea). From the next day, 200 μL of placebo (control), 1% IM, 1% minoxidil, or 1% metformin was applied daily to the depilated area using a sterile cotton swab. Images of each animal were captured daily, and the degree of darkness of the color on dorsal skin was quantified in the same area (1.6 cm×3 cm) using the Image J program. The mice were sacrificed, and skin tissues on days 0, 7, 14, and 20 were obtained. Half of the tissues were used for RNA isolation, and the other half were fixed with 4% paraformaldehyde overnight for histochemical analysis. The tissues fixed in Example 1.1. were immersed in 30% sucrose, and then embedded in an OCT compound (Sakura Finetek USA Inc, Torrance, Calif., USA). Frozen fragments were obtained using a cryostat sectioning device (Leica, Wetzlar, Germany) and stained using hematoxylin (Sigma) and eosin (Sigma) (H&E), or each of the antibodies shown in Table 1 below. Immunohistochemical analysis was performed, and fluorescence images were taken with an Olympus microscope (Olympus) According to the guidelines for accurately classifying the hair cycle stages, the hair cycle was quantified by classifying individual hair follicles with H&E staining micrographs in the longitudinal section of each mouse (n>10). The percentage of the anagen phase of the hair was calculated for each group. Hair follicles in the same area (1300 μm width) were counted by H&E staining micrographs in the cross section of each mouse (n>10).

Turning to `Cc1ccccc1CCNC(=N)NC(=N)N` [IM176OUT05, N-1-(2-methyl)phenethylbiguanide], the figures for the “improvement of effect of maintaining stemness” value in assay [1] (10 nM) and in assay [1] (100 nM) were 7.6 times and 8.2 times, respectively. The “AP staining (stemness)” value in assay [1] (hESCs in unconditioned medium, low dose) is recorded as “increase in AP staining”. In assay [2] (1% topical daily on dorsal skin, day 9), the “black pigmentation and hair growth” value is listed as “remarkably observed”. The “hair growth, male and female mice” value in assay [2] (1% topical daily, comparison with minoxidil) was “promoted hair growth in both male and female mice”. Besides, the “skin color compared to control or minoxidil-treated mice” value in assay [2] (1% topical daily, day 8) was “clearly darkened”. Besides, the hair growth result in assay [2] (1% topical daily, day 10) is on record as “markedly promoted”. In assay [2] (1% topical daily, female mice), the “hair growth in female mice” value is listed as “strong promoting effect”. Besides, the “effect compared to minoxidil, independent experiment” value in assay [2] (female mice) is listed as “excellent effect as compared to minoxidil”. For the same molecule, the “number of hair follicles compared to control” value is on record as “significantly increased” in assay [3] (day 7, cross section) and “significantly higher” in assay [3] (day 20). Further, in assay [3] (day 20, longitudinal section), the “stage of most hair follicles” value was “growth phases V and VI”. Also, the “progression of the hair follicle cycle” value in assay [3] (histomorphometry) is on record as “stimulated the progression of the hair follicle cycle”.
